Reference: patent publication US20140314780A1, “Compositions Using Antibodies Directed to GPNMB and Uses Thereof” (Celldex Therapeutics, Inc., priority 2008, published 2014)

Experiments:
UACC62 melanoma cells = test: In vitro growth-inhibition/cytotoxicity assay, UACC62 cells; assay type: cell-based, human; settings: UACC62 cells
[1] = system: MART-1, TYRP-2, TYRP-1, PMEL17, MAGEA1, MCSP, MTf, MCAM; settings: melanoma cell lines, U0126 20 μM, 48 hours (FIG. 5)
Experimental: Cells were seeded in 6-well tissue culture dishes at a subconfluent density and allowed to attach overnight. For harvesting cell lysates, media was removed, cells were briefly washed with serum-free media and then 1× Tris-glycine SDS sample buffer (Invitrogen, Carlsbad, Calif.) supplemented with 10 mM dithiothreitol (Sigma) was added directly to the wells. Cell lysates were then collected and boiled for 10 minutes. For preparing conditioned media, drug treatments were performed in a minimum volume of growth media (1.5 mL/well). Following 48 hours of incubation, conditioned media was collected, briefly microfuged, mixed with an equal volume of 2× Tris-glycine SDS sample buffer (Invitrogen, Carlsbad, Calif.) supplemented with 20 mM dithiothreitol (Sigma) and boiled for 10 minutes. For cell lysates, samples were quantified and an equal quantity of protein/lane was resolved on 4-20% gradient polyacrylamide gels (Invitrogen) and then transferred to nitrocellulose filters (Invitrogen). The volume of conditioned media loaded/lane was adjusted based on the protein concentration determined in the respective cell lysates. […]

GPNMB = test: Immunoblotting for GPNMB on whole-cell lysates of cancer cell lines after drug exposure; assay type: cell-based, human
From the text: Cancer cell lines were of human origin and were obtained from the American Type Culture Collection (Manassas, Va.) and from the National Cancer Institute (Bethesda, Md.) and cultured in RPMI-1640 supplemented with 10% FBS (growth media). Sources of reagents were as follows: RAFKi (553013), MEKi (U0126), MEKi (PD98059), MEKi (444939), ERKi (FR180204), p38 MAPKi (SB202190), p38 MAPKi (SB203580), aurora kinase inhibitor (189404), JNK inhibitor (420119), MMPi (GM6001) were from EMD Chemicals (San Diego, Calif.). ERKi (A6355), RAFKi: (GW5074), ammonium chloride (NH4Cl), chloroquine, monensin, cyclohexamide and emetine were from Sigma (Saint Louis, Mo.). HSP90i (geldanamycin) was from AG Scientific (San Diego, Calif.) and imatinib (Gleevec) was purchased from a pharmacy.
Cells were seeded in 6-well tissue culture dishes at a subconfluent density and allowed to attach overnight. For harvesting cell lysates, media was removed, cells were briefly washed with serum-free media and then 1× Tris-glycine SDS sample buffer (Invitrogen, Carlsbad, Calif.) supplemented with 10 mM dithiothreitol (Sigma) was added directly to the wells. Cell lysates were then collected and boiled for 10 minutes. For preparing conditioned media, drug treatments were performed in a minimum volume of growth media (1.5 mL/well). Following 48 hours of incubation, conditioned media was collected, briefly microfuged, mixed with an equal volume of 2× Tris-glycine SDS sample buffer (Invitrogen, Carlsbad, Calif.) supplemented with 20 mM dithiothreitol (Sigma) and boiled for 10 minutes. For cell lysates, samples were quantified and an equal quantity of protein/lane was resolved on 4-20% gradient polyacrylamide gels (Invitrogen) and then transferred to nitrocellulose filters (Invitrogen). The volume of conditioned media loaded/lane was adjusted based on the protein concentration determined in the respective cell lysates. Immunoblotting was performed using standard procedures and the following primary antibodies: MARTI (sc-20032), TYRP2 (sc-25544), TYRP1 (sc-25543), PMEL17 (sc-15010), MAGEA1 (sc-20033), MCSP (sc-20162), MTf (sc-26651), MCAM (sc-18942), pp-ERK (sc-7976) and ERK (sc-94) (preceding antibodies were purchased from Santa Cruz Biotechnologies, Santa Cruz, Calif.), GPNMB (AF2550; R & D Systems, Minneapolis Minn.), actin (A5060; Sigma). Following incubation with the appropriate horseradish peroxidase-conjugated secondary antibodies, enhanced chemiluminescence (GE Healthcare, Chalfont St. Giles, United Kingdom) was used for detection.

SKMEL2 cells = SKMEL2 cells (FIG. 4C)
Experimental: Cells were seeded in tissue culture dishes at a subconfluent density and allowed to attach overnight. The following day, cells were treated with or without U0126 (1 μM) diluted in growth media and incubated for 48 hours. […] After incubation, photomicrographs were taken and adherent cells were trypsinized, mixed with trypan blue dye and counted on a haemocytometer. Only viable cells which excluded trypan blue were counted. For SKMEL2, cells were seeded in 96-well plates after U0126 treatment and assayed after 72 h using the CellTiter-Glo assay according to the manufacturer's instructions (Promega, Madison, Wis.).

[2] = system: GPNMB surface expression on SKMEL2 melanoma cells; test: Flow cytometry of GPNMB surface expression, SKMEL2 cells; assay type: cell-based, human; settings: SKMEL2; CR011 (anti-GPNMB) primary antibody; MEKi (U0126) 10 uM, imatinib 20 uM, p38i (SB202190) 50 uM
Experimental: (§1) Cells were seeded in 6-well tissue culture dishes at a subconfluent density and allowed to attach overnight. The following day, cells were treated as indicated in the figures/legends, harvested with versene (Invitrogen), washed with PBS and incubated with primary antibody (10 μg/mL) diluted in staining buffer (PBS pH 7.4, 4% FBS, 0.1% sodium azide) for 30 minutes on ice. […] After incubation with primary antibody, samples were washed with staining buffer and then incubated with secondary antibody (PE-conjugated anti-human antibody; 1:100) for 30 minutes on ice. After incubation, samples were washed with staining buffer and examined on a Becton Dickinson FACSCalibur flow cytometer (BD Immunocytometry Systems, San Jose, Calif.). Data analysis was performed with Becton Dickinson Cell Quest software and the geometric mean fluorescence intensity (GeoMean) was determined for each sample.
(§2) For the data shown in Table 37, flow cytometry was performed on intact, non-permeabilized cells using the indicated primary monoclonal antibodies. […] The results are reported as GeoMeans. For the data shown in the top panel of Table 37, A375 (melanoma) or SF539 (glioblastoma) cells were treated with the indicated concentrations of MEKi (U0126), RAFKi (553013) or ERKi (FR180204) for 12, 24 or 48 hours prior to analysis. For the data shown in the bottom left panel of Table 37, SKMEL2 (melanoma) cells were treated with MEKi (U0126; 10 uM), imatinib (20 uM), p38i (p38 MAPKi SB202190; 50 uM), NH4Cl (ammonium chloride; 20 mM) or CLQ (chloroquine; 20 uM) for 48 hours prior to analysis. For the data shown in the bottom right panel of Table 37, WM2664 (melanoma) cells were treated with MON (monensin) or MMPi (GM6001) for 48 hours prior to analysis.

[3] = system: GPNMB surface expression on SF539 glioblastoma cells; test: Flow cytometry of GPNMB surface expression, SF539 cells; assay type: cell-based, human; settings: SF549, CR011 (anti-GPNMB) primary antibody
Experimental: as §1
as §2, with “For the data shown in the top panel of Table 37, A375 (melanoma) or SF539 (glioblastoma) cells were treated with the indicated concentrations of MEKi (U0126), RAFKi (553013) or ERKi (FR180204) for 12, 24 or 48 hours prior to analysis.” left out

`N#CC(=C(/N)Sc1ccccc1N)/C(C#N)=C(\N)Sc1ccccc1N` [Mab U0126] was tested, and the “sensitization to CR011-vcMMAE by pretreatment, CellTiter-Glo assay (ATP)” value (UACC62 melanoma cells) was “confirmed”, the “sensitization to growth-inhibitory activity of CR011-vcMMAE by pretreatment” value (UACC62 melanoma cells) was “sensitized” and the “expression of MART-1, TYRP-2, TYRP-1, PMEL17” value [1] was “induced by MEK inhibition in some cell lines”. For the same compound, the “expression of other targets (MAGEA1, MCSP)” value [1] was “either were not effected or even decreased”, the “GPNMB induction (immunoblotting), kinetics and drug concentration” value (GPNMB) was “increased with exposure time” and the “GPNMB induction compared to other melanoma-associated proteins” value (GPNMB) was “most consistently induced”. For the same compound, the “sensitization to CR011-vcMMAE by pretreatment” value (SKMEL2 cells) was “sensitized”, the “GPNMB surface expression, flow cytometry GeoMean” value (“GPNMB surface expression” for short) [2] was 174.5 and the “GPNMB surface expression” value ([3]; MEKi (U0126) 5 um, 12 h) was 41.5. For the same compound, the “GPNMB surface expression” value ([3]; MEKi (U0126) 5 um, 24 h) was 36.3, the “GPNMB surface expression” value ([3]; MEKi (U0126) 5 um, 48 h) was 41.5 and the “GPNMB surface expression” value ([3]; MEKi (U0126) 20 um, 12 h) was 46.3. The “GPNMB surface expression” value ([3]; MEKi (U0126) 20 um, 24 h) was 39.2.
